# Publication PMC10748079, “Discovery of Potent Indolyl-Hydrazones as Kinase Inhibitors for Breast Cancer: Synthesis, X-ray Single-Crystal Analysis, and In Vitro and In Vivo Anti-Cancer Activity Evaluation” (Pharmaceuticals, 2023)
# “And” between values parts separate entries of the source, which are not always exact repeats. Equal values may be shown once.
# Tests used:
# [1] = tested on: MCF-7 breast cancer cells; experiment: MTT cytotoxicity assay; assay type: cell-based; details: for IC50: MCF-7 cells, MTT, 48 h, mean ± SD of three independent values; for fold higher potency than reference drug staurosporine against MCF-7: versus staurosporine
# Experimental: The National Research Institute in Egypt donated the breast cancer (MCF-7) cells, which were collected and cultured in RPMI-1640 medium L-glutamine (Lonza Verviers SPRL, Verviers, Belgium, cat#12-604F). The 10% fetal bovine serum (FBS; Sigma-Aldrich, St. Louis, MO, USA) and 1% penicillin-streptomycin (Lonza, Belgium) were given to each of the two cell lines.
# All cells were cultured, following routine tissue culture work, in 5% CO2 humidified at 37 °C. Cells were exposed to compounds at concentrations of 0.01, 0.1, 1, 10, and 100 μM on the second day of culturing. After 48 h, cell viability was evaluated using the MTT solution (Promega, Madison, WI, USA). MTT dye (20 μL) was placed into each well, and the plate was then incubated for three hours. Absorbance was subsequently measured at 570 nm using the ELISA microplate reader (BIO-RAD, model iMark, Tokyo, Japan), and the percentage of cell viability was calculated, compared to control, as (mean absorbance of tested compound)/(mean absorbance in control) × 100. Finally, IC50 values were found using the nonlinear dose–response sigmoidal curve in GraphPad Prism 7 [39].
# MCF-7 cells [2] = experiment: Wound-healing assay (scratch assay); assay type: cell-based; details: MCF-7, treated at IC50 of compound, 48 h, mean ± SD
# Experimental: The wound-healing test was mentioned in previous research. Six-well plates containing starvation media were filled with four […] MCF-7 cells per well, and the plates were subsequently incubated at 37 °C for the whole night. A sterile 1 mL pipette tip was used to generate a scratch of the cell monolayer once it was established the following day that the cells had adhered to the well and that cell confluence had reached 90%. Starvation media was used to clean the cells before they were removed from the plates. […] After 48 h, the medium was immediately changed to PBS, the wound gap was examined, and cells—both control and treated—were captured on camera with a digital camera attached to an Olympus microscope. The region where the wound closes was measured.
# MCF-7 cells [3] = experiment: Annexin V/PI staining flow cytometry (apoptosis/necrosis); assay type: cell-based; details: MCF-7, treated at IC50, 48 h
# Experimental: (§1) Annexin V/PI staining and cell cycle analysis […] MCF-7 cells were added to 6-well culture plates, which were then placed in the incubator for the night. […] Following that, PBS was rinsed with ice-cold water before cells and media supernatants were gathered. The cells were then treated with “Annexin V-FITC solution (1:100) and propidium iodide (PI)” at a concentration of 10 µg/mL for 30 min in the dark after being suspended in […] of annexin-binding buffer solution, which was composed of 25 mM CaCl2, 1.4 M NaCl, and 0.1 M Hepes/NaOH, pH 7.4. Then, labeled cells were collected using the Cytoflex FACS system. The data were assessed using the cytExpert program.
# MCF-7 cells [4] = experiment: DNA content flow cytometry (cell cycle analysis); assay type: cell-based; details: MCF-7, treated at IC50, 48 h
# Experimental: as §1
# AKT-1 = target: T1, AKT-1 (Homo sapiens, UniProt P31749); experiment: Kinase inhibitory assay (ELISA kit); assay type: biochemical; details: average of three independent replicates; read-out: IC50 ± SD AKT-1
# T1 construct: purchased Bioscience, USA #78038
# Experimental: (§2) The following calculation was used to compute the proportion that chemicals inhibited autophosphorylation: […]. Using the GraphPad prism7 program, the IC50 was calculated using the curves of percentage inhibition of five concentrations of each chemical.
# CDK2 = target: T2, CDK2 (Homo sapiens, UniProt P24941); experiment: Kinase inhibitory assay (ELISA kit); assay type: biochemical; details: average of three independent replicates; read-out: IC50 ± SD CDK2
# T2 construct: purchased Bioscience, USA #79599
# Experimental: as §2
# EGFR = target: T3, EGFR (Homo sapiens, UniProt P00533); experiment: Kinase inhibitory assay (ELISA kit); assay type: biochemical; details: average of three independent replicates; read-out: IC50 ± SD EGFR
# T3 construct: purchased Bioscience, USA #40321
# Experimental: as §2
# PI3K-α = target: T4, PI3K-α (Homo sapiens, UniProt P42336); experiment: Kinase inhibitory assay (ELISA kit); assay type: biochemical
# T4 construct: purchased Bioscience, USA #40639
# Experimental: as §2
# PI3K-β = target: T5, PI3K-β (Homo sapiens, UniProt P42338); experiment: Kinase inhibitory assay (ELISA kit); assay type: biochemical; details: average of three independent replicates; read-out: IC50 ± SD PI3K-β
# T5 construct: purchased Bioscience, USA #79802
# Experimental: as §2
# PI3K-δ = target: T6, PI3K-δ (Homo sapiens, UniProt O00329); experiment: Kinase inhibitory assay (ELISA kit); assay type: biochemical; details: average of three independent replicates; read-out: IC50 ± SD PI3K-δ
# T6 construct: purchased Bioscience, USA #40628
# Experimental: EGFR (catalog #40321), CDK2 (catalog #79599), AKT (catalog #78038), PI3K-α (catalog #40639), β (catalog #79802), and δ (catalog #40628) kinase inhibitions were conducted using an ELISA kit in accordance with the manufacturer instructions from Bioscience, USA. To assess the inhibitory potency of compound 5 against the kinase activity, kinase inhibitory tests were carried out. The following calculation was used to compute the proportion that chemicals inhibited autophosphorylation: […]. Using the GraphPad prism7 program, the IC50 was calculated using the curves of percentage inhibition of five concentrations of each chemical.
# [5] = tested on: Solid Ehrlich carcinoma (SEC); experiment: In vivo antitumor activity in SEC-bearing mice; parameters: species or system Swiss albino mice; details: IP, 5 mg/kg; for solid tumor mass: SEC control 398.1 mg; for tumor proliferation inhibition (TIR%): TIR% = C − T/C × 100
# Experimental: The Suez Canal University Research Ethics Committee gave the experimental procedure their seal of approval (approval number REC219/2023, Faculty of Science, Suez Canal University). The full, detailed methodology is supported in the Supplementary Materials.
# Animals and tumor cell line
# Adult female Swiss albino mice purchased from Theodor Bilharzia Research Institute, Giza, Egypt, with an average body weight of (18-23) g was used. Mice were housed under constant conditions of 12 h light/dark cycle in a […], with free access to standard laboratory mice food and water .All procedures related to care and maintenance of the animals were performed according to the international guiding principles for animal research and approved by Faculty of Science, Suez Canal University bioethics and animal ethics committee (Approval […]
# Solid Ehrlich carcinoma (SEC) were got from the National Cancer Institute (Cairo University, Egypt). The tumor cell line was proliferated in mice through serial intraperitoneal (I.P.) transplantation of a volume of 0.2 mL physiological saline contains 1 × 10^6 viable cells for 24 h. SEC cells were collected 7 days after I.P. implantation. The harvested cells were diluted with saline to obtain a concentration of 5 × 10^6 viable SEC cells/mL. A volume of 0.2 mL saline contains 1 × 10^6 SEC cells that were I.P. implanted into each normal mouse. SEC cells (1 × 10^6 tumor cells/mouse) were implanted subcutaneously into the right thigh of the hind limb.
# The experimental animals were randomly divided into four groups. Group 1 served as the normal saline control (5 mL/kg B.Wt., I.P.). Group 2 served as the SEC control (1 × 10^6 cells/mouse). Group 3 served as the compound-treated group (5 mg/kg B.Wt., I.P.).
# Group 4 received the standard anticancer drug of Doxorubicin (DOX) (5 mg/kg BW, I.P.) and is considered as a reference control. Body weight and survival were recorded daily until the 24th day in both treated and control groups. At the end of experiment, the blood of each group was collected under light anesthesia for estimation of hematological and biochemical assays. The anesthetized animals were then sacrificed for evaluation of the antitumor activity and histopathological examination.
# It includes tumor volume, weight, and tumor inhibition ration (TIR%). Time interval measurements of tumor volume using digital Vernier caliper (Tricle Brand, Shanghai, […]
# China). Measure tumor length and width using clipper and then calculate tumor volume using formulations V = (L x W x W)/2, where V is tumor volume, W is tumor width, L is […]
# tumor length. […]
# T4 sequence (P42336 whole entry): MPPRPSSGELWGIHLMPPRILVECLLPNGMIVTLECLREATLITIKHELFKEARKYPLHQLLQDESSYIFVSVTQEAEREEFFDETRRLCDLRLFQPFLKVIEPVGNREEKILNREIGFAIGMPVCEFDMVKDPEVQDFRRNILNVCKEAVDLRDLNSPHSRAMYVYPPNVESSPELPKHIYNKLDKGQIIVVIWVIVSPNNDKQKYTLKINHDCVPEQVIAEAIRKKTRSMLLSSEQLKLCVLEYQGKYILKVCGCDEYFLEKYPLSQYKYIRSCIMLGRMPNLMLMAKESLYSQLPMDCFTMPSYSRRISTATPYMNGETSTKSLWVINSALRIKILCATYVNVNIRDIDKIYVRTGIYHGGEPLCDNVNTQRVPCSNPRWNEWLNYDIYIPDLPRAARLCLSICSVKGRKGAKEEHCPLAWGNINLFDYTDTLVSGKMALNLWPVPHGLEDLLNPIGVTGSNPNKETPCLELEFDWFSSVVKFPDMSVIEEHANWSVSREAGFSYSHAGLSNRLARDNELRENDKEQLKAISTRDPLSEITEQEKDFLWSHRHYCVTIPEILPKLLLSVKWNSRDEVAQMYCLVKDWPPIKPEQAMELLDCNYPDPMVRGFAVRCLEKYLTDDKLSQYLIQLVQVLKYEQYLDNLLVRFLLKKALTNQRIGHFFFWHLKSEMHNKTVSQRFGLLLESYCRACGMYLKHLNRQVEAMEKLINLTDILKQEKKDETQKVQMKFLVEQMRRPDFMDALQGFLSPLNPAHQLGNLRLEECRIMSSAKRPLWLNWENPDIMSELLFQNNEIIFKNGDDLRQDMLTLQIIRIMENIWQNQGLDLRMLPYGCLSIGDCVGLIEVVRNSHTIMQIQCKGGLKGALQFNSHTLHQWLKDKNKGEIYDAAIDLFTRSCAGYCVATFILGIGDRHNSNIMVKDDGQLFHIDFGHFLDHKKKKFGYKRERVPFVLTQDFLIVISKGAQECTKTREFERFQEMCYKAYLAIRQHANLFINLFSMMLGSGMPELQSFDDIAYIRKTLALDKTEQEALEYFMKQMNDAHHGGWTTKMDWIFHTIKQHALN
# T4 sequence (P27986 whole entry partner): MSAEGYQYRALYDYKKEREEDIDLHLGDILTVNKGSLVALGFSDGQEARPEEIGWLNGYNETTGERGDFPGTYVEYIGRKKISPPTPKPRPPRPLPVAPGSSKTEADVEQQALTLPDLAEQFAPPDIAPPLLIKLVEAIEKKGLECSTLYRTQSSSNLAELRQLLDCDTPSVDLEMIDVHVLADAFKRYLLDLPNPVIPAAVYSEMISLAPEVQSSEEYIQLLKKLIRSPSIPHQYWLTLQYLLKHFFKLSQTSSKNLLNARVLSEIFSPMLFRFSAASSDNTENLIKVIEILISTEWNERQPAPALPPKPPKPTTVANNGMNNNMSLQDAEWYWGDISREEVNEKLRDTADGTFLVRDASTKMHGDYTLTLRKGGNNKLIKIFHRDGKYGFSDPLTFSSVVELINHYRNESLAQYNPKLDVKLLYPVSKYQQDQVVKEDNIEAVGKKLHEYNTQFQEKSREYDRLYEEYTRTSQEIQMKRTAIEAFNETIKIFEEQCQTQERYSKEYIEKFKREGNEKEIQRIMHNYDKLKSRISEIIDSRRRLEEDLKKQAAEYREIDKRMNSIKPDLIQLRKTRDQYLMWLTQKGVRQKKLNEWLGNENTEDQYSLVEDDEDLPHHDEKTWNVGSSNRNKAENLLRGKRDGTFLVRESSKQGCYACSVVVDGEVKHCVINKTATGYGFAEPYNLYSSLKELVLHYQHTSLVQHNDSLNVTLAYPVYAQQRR
# T6 sequence (O00329 whole entry): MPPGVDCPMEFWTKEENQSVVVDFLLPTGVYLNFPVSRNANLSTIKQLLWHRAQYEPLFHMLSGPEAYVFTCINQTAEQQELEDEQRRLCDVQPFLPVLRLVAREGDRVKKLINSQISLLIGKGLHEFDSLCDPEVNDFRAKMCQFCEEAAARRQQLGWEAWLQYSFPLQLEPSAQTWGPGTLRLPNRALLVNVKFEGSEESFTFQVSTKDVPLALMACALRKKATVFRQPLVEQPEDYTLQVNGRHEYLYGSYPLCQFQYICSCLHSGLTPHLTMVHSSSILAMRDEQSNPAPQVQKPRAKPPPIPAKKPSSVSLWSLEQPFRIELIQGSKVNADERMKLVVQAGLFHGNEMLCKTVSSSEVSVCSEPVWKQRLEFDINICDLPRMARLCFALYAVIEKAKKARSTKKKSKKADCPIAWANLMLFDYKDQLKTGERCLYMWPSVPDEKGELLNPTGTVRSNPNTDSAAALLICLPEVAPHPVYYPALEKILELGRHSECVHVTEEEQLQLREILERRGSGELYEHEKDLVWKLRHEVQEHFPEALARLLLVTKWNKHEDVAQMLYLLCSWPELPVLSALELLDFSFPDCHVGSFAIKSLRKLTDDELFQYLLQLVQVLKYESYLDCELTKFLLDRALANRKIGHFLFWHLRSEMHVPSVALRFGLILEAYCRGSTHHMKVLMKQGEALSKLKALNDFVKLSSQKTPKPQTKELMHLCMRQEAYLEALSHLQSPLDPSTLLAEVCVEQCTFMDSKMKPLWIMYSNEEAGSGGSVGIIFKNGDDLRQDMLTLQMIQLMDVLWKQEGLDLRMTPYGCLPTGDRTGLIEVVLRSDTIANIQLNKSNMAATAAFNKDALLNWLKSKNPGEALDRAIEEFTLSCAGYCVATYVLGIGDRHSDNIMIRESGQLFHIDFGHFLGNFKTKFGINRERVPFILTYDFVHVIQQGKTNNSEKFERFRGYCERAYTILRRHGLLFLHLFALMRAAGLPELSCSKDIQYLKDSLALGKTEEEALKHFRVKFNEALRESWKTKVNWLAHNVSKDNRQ
# T6 sequence (P27986 whole entry partner): as the sequence (P27986 whole entry partner) above
# T5 sequence (P42338 whole entry): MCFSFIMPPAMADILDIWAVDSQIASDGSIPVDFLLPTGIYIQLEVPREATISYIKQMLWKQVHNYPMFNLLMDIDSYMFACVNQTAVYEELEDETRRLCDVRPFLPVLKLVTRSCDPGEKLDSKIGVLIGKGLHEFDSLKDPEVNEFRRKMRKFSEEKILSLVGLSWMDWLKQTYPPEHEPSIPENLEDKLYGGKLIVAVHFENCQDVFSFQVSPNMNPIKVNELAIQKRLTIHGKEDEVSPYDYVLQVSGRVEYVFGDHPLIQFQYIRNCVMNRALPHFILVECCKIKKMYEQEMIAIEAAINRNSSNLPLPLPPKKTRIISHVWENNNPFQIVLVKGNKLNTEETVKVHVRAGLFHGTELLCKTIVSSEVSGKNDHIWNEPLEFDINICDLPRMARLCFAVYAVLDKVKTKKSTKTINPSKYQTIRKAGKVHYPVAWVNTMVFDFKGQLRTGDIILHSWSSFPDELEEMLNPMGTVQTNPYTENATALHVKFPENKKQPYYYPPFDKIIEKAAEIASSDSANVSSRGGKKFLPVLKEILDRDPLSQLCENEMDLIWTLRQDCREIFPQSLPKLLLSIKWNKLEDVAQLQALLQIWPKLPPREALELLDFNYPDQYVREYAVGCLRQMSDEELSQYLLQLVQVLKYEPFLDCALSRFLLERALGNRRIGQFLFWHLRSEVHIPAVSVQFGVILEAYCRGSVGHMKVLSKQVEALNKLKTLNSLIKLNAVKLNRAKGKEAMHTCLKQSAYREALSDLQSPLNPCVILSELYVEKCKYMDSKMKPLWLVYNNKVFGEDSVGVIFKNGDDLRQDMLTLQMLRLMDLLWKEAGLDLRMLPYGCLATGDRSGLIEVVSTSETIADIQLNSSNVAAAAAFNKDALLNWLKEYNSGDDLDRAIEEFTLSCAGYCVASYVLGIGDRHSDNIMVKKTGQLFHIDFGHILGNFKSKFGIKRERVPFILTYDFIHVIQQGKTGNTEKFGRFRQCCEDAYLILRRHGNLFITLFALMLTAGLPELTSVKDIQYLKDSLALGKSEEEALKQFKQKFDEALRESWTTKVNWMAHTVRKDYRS
# T5 sequence (P27986 whole entry partner): as the sequence (P27986 whole entry partner) above
# T1 sequence (P31749 whole entry): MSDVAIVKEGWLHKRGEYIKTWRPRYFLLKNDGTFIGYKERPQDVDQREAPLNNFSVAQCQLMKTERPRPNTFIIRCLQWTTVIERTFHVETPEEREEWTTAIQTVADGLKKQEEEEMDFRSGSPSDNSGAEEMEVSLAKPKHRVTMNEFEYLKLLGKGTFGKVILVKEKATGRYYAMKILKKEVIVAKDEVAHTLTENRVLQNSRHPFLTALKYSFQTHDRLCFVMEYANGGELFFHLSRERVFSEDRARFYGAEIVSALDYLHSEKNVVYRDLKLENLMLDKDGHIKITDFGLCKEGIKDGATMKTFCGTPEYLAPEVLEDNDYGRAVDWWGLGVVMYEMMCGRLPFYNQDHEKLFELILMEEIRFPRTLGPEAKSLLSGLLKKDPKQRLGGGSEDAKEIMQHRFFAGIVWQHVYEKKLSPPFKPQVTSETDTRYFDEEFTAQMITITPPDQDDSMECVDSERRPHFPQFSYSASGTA
SMILES,melting point,"%Closure, MCF-7 (wound closure) (MCF-7 cells [2])",Annexin V/PI Staining Early (early apoptosis) (MCF-7 cells [3]),Annexin V/PI Staining Late (late apoptosis) (MCF-7 cells [3]),Annexin V/PI Staining Necrosis (MCF-7 cells [3]),Annexin V/PI Staining Total (total cell death) (MCF-7 cells [3]),DNA Content %G0-G1 (MCF-7 cells [4]),DNA Content %G2/M (MCF-7 cells [4]),DNA Content %Pre-G1 (MCF-7 cells [4]),DNA Content %S (MCF-7 cells [4]),"IC50 ([1]; Homo sapiens, MCF7, 48 h)",further results
"CCOC(=O)c1[nH]c2ccccc2c1/C=N/Nc1ccc([N+](=O)[O-])cc1[N+](=O)[O-] [Compound 12, Ethyl (E)-3-((2-(2,4-dinitrophenyl)hydrazineylidene)methyl)-1H-indole-2-carboxylate]",,51.85% and 51.8%,4.59%,17.44%,15.02%,37% and 37.05%,59.33%,2.55%,37.05%,38.10%,,"IC50 ([1]; Homo sapiens, MCF7): 7.03 ± 0.37 µM"
"CCOC(=O)c1[nH]c2ccccc2c1/C=N/N=C/c1c(C(=O)OCC)[nH]c2ccccc12 [Compound 5, Diethyl 3,3’-((1E,1’E)-hydrazine-1,2-diylidenebis(methaneylylidene))bis(1H-indole-2-carboxylate)]",,48.88% and 48.8%,7.11%,22.24%,9.91%,39.26%,39.07%,4.74%,39.26%,56.2% and 56.19%,2.73 ± 0.14 µM,"fold higher potency than reference drug staurosporine against MCF-7 [1]: 3 fold; apoptosis (apoptosis ratio, early + late) (MCF-7 cells [3]): 29.35%; IC50 (AKT-1): 0.602 ± 0.03 µM; IC50 (CDK2): 0.156 ± 0.01 µM; IC50 (EGFR): 0.058 ± 0.029 µM; IC50 (PI3K-α; average of three independent replicates, read-out: IC50 ± SD PI3K-α): 1.73 ± 0.1 µM; fold higher potency than LY294002 against PI3K-α (PI3K-α; versus LY294002): 4.92 fold; IC50 (PI3K-β): 2.27 ± 0.11 µM; IC50 (PI3K-δ): 2.68 ± 0.15 µM; tumor volume [5]: 56.4 mm^3; solid tumor mass [5]: 126.5 mg; tumor proliferation inhibition (TIR%) [5]: 46.9%"
"CCOC(=O)c1[nH]c2ccccc2c1/C=N/n1c(-c2cc3ccccc3[nH]2)n[nH]c1=S [Compound 8, Ethyl (E)-3-(((3-(1H-indol-2-yl)-5-thioxo-1,5-dihydro-4H-1,2,4-triazol-4-yl)imino)methyl)-1H-indole-2-carboxylate]",,60.74% and 60.7%,2.27%,13.45%,8.66%,24.4% and 24.38%,47.10%,6.57%,24.38%,46.31%,4.38 ± 0.23 µM,"fold higher potency than reference drug staurosporine against MCF-7 [1]: up to 1.9 fold; apoptosis (apoptosis ratio, early + late) (MCF-7 cells [3]): 15.72%"
"CCOC(=O)c1[nH]c2ccccc2c1C=O [Compound 1, ethyl 3-formyl-1H-indole-2-carboxylate]",,,,,,,,,,,19.7 ± 2.31 µM,
"O=c1cc(N2CCOCC2)oc2c(-c3ccccc3)cccc12 [LY294002, reference compound]",,,,,,,,,,,,IC50 (PI3K-δ): 0.85 ± 0.05 µM
"O=c1[nH]cc(F)c(=O)[nH]1 [Compound 5-FU, 5-FU, reference compound]",,,,,,,,,,,,tumor volume [5]: 43.7 mm^3; solid tumor mass [5]: 110 mg; tumor proliferation inhibition (TIR%) [5]: 58.8%

# Further lines, with some results ahead:
melting point,SMILES,"%Closure, MCF-7 (wound closure) (MCF-7 cells [2])",Annexin V/PI Staining Early (early apoptosis) (MCF-7 cells [3]),Annexin V/PI Staining Late (late apoptosis) (MCF-7 cells [3]),Annexin V/PI Staining Necrosis (MCF-7 cells [3]),Annexin V/PI Staining Total (total cell death) (MCF-7 cells [3]),DNA Content %G0-G1 (MCF-7 cells [4]),DNA Content %G2/M (MCF-7 cells [4]),DNA Content %Pre-G1 (MCF-7 cells [4]),DNA Content %S (MCF-7 cells [4]),"IC50 ([1]; Homo sapiens, MCF7, 48 h)",further results
285 to 286 °C,"CCOC(=O)c1[nH]c2ccccc2c1/C=N/NC(N)=O [Compound 6, Ethyl (E)-3-((2-carbamoylhydrazineylidene)methyl)-1H-indole-2-carboxylate]",,,,,,,,,,10.2 ± 0.53 µM,IC50 [1]: 9.42 ± 0.57 µM
229 to 230 °C,"CCOC(=O)c1[nH]c2ccccc2c1/C=N/NC(N)=S [Compound 3, Ethyl (E)-3-((2-carbamothioylhydrazineylidene)methyl)-1H-indole-2-carboxylate]",,,,,,,,,,9.42 ± 0.57 µM,IC50 [1]: 10.2 ± 0.53 µM
270 to 271 °C,"CCOC(=O)c1[nH]c2ccccc2c1/C=N/Nc1ccc([N+](=O)[O-])cc1 [Compound 10, Ethyl (E)-3-((2-(4-nitrophenyl)hydrazineylidene)methyl)-1H-indole-2-carboxylate]",,,,,,,,,,25.4 ± 1.54 µM,
